Experimental data reported in US8791113B2, “2,4-diaryl-substituted [1,8] naphthyridines as kinase inhibitors for use against cancer” (Merck Patent GmbH, priority 2010, dated 2014).

How the values were obtained:
[1] = target: T1, GST-ALK5 (TGF-beta receptor kinase) (Homo sapiens, UniProt P36897); test: In-vitro (enzyme) kinase flashplate assay: GST-ALK5 phosphorylation of GST-SMAD2 with 33P-ATP; type: biochemical; conditions: 384-well flashplate kinase assay, GST-ALK5 / GST-SMAD2, 33P-ATP, 30° C., 45 min; read-out: TβR activity (Example 50)
T1 sequence (P36897 34-503): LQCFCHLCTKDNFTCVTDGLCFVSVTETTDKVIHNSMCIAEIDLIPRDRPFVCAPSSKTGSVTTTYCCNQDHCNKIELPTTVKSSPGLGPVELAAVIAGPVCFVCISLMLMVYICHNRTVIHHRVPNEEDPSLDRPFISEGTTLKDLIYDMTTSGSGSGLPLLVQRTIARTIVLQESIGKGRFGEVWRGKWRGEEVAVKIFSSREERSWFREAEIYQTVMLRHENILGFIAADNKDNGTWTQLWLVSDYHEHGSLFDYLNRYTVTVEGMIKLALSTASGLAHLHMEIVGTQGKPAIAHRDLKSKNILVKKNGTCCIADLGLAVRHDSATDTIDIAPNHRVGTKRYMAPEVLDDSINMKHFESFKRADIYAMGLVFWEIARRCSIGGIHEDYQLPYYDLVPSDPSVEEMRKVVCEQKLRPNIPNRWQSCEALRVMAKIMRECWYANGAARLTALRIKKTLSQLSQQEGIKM
Method: In-vitro (Enzyme) Assay for Determination of the Efficacy of Inhibitors of the Inhibition of TGF-Beta-Mediated Effects
The kinase assay was carried out as 384-well flashplate assay. 31.2 nM of GST-ALK5, 439 nM of GST-SMAD2 and 3 mM of ATP (with 0.3 μCi of ^33P-ATP/well) were incubated in a total volume of 35 μl (20 mM of HEPES, 10 mM of MgCl2, 5 mM of MnCl2, 1 mM of DTT, 0.1% of BSA, pH 7.4) without or with test substance (5-10 concentrations) at 30° C. for 45 min. The reaction was stopped using 25 μl of 200 mM EDTA solution, filtered with suction at room temperature after 30 min, and the wells were washed with 3 times 100 μl of 0.9% NaCl solution. Radioactivity was measured in the TopCount. The IC50 values were calculated using RS1.

[2] = tested on: TGF-beta-induced phosphorylation of Smad2 (Ser465/467) and Smad3 (Ser423/425) in Mv1-Lu cells; test: Inhibition of Smad2/3 phosphorylation in Mv1Lu cells (PathScan Phospho-Smad2 ELISA); type: cell-based, mink Mustela vison; conditions: Neogale vison, Mv1-Lu cells, TGF-beta 1 5 ng/ml, Phospho-Smad2/3 ELISA, read-out: TβR activity (Example 51)
Method: Inhibition of Smad2/3 Phosphorylation in Mv1 Lu Cells by TGF-Beta Receptor I Kinase Inhibitors
This assay was used to determine the inhibitory potency of compounds on TGF-beta-induced phosphorylation of Smad2 (Ser465/467) and Smad3 (Ser423/425). Mv1-Lu cells (lung epithelial cell line from mink Mustela vison; ATCC number: CCL-64) were seeded in DMEM (Invitrogen) supplemented with 10% fetal bovine serum (Pan Biotech) at a defined cell density in 24-well or 96-well plates (24-well plate: 1.5×10^5 cells per well; 96-well plate: 4×10^4 cells per well). Cell cultures were incubated in DMEM at 37° C. and 10% CO2. On the next day, the medium was replaced and cells were serum-starved for 16-20 hours. The following day, serial dilutions of compounds were added to the wells, pre-incubated for 1.5 hrs before recombinant TGF-beta 1 ligand (final concentration 5 ng/ml; R&D systems) was added. After one hour of ligand stimulation, lysates were prepared and analyzed using an enzyme-linked immunosorbent assay kit (PathScan Phospho-Smad2 Kit, Cell Signaling Technologies). The ELISA detects phosphorylated Smad2 as well as phosphorylated Smad3 with the phospho-specific antibody. TGF-beta stimulated cells and unstimulated cells served as positive and negative controls (100% and background control). The concentration of the vehicle DMSO was kept constant at 0.2% (v/v) in all wells. Dose-response relationships were fitted using curve fitting algorithms of the RS1 statistics software package (Brooks Automation Inc. RS/1- Statistical Tools Handbook. Release 6.2) to determine the concentration at which half-maximal inhibition (IC50) of Smad2/3 phosphorylation was achieved.

| SMILES | IC50 [1] [µM] | IC50 [2] [µM] |
| --- | --- | --- |
| Fc1ccccc1-c1cc(-c2ccc(OCCN3CCOCC3)c3cnccc23)c2cccnc2n1 [Compound 25, 2-(2-fluoro-phenyl)-4-[8-(2-morpholin-4-yl-ethoxy)-isoquinolin-5-yl]-[1,8]naphthyridine] | < 1 | < 1 |
| COc1nnc(-c2cc(-c3ccccc3F)nc3ncccc23)c2ccncc12 [Compound 32, 1-[2-(2-Fluoro-phenyl)-[1,8]naphthyridin-4-yl]-4-methoxy-pyrido[3,4-d]pyridazine] | < 1 | > 10 |
| Fc1ccc(Cl)cc1-c1cc(-c2nccc3cnccc23)c2cccnc2n1 [Compound 35, 2-(5-Chloro-2-fluoro-phenyl)-4-[2,6]naphthyridin-1-yl-[1,8]naphthyridine] | < 1 | < 1 |
| Fc1ccc(Cl)cc1-c1cc(-c2cncc3ncccc23)c2cccnc2n1 [Compound 37, 5-[2-(5-Chloro-2-fluoro-phenyl)-[1,8]naphthyridin-4-yl]-[1,7]naphthyridine] | < 1 | 1 to 10 |
| Nc1ccc(-c2cc(-c3cc(F)ccc3F)nc3ncccc23)c2ccncc12 [Compound 38, 5-[2-(2,5-Difluoro-phenyl)-[1,8]naphthyridin-4-yl]-isoquinolin-8-ylamine] | < 1 | < 1 |
| COc1nccc2c(-c3cc(-c4ccccc4F)nc4ncccc34)nccc12 [Compound 40, 2-(2-Fluoro-phenyl)-4-(5-methoxy-[2,6]naphthyridin-1-yl)-[1,8]naphthyridine] | > 10 | > 10 |
| Nc1ccc2cnccc2c1-c1cc(-c2ccccc2F)nc2ncccc12 [Compound 62, 5-[2-(2-Fluoro-phenyl)-[1,8]naphthyridin-4-yl]-isoquinolin-6-ylamine] | < 1 | 1 to 10 |
| Cn1cc(-c2ccc(-c3cc(-c4ccccc4F)nc4ncccc34)c3cnccc23)cn1 [Compound 64, 2-(2-Fluoro-phenyl)-4-[5-(1-methyl-1H-pyrazol-4-yl)-isoquinolin-8-yl]-[1,8]naphthyridine] | 1 to 10 | < 1 |
| Cn1cc(-c2ccc(-c3cc(-c4ccccc4F)nc4ncccc34)c3ccncc23)cn1 [Compound 65, 2-(2-Fluoro-phenyl)-4-[8-(1-methyl-1H-pyrazol-4-yl)-isoquinolin-5-yl]-[1,8]naphthyridine] | < 1 | < 1 |
| Nc1cc2cnccc2c(-c2cc(-c3ccccc3F)nc3ncccc23)n1 [Compound 66, 1-[2-(2-Fluoro-phenyl)-[1,8]naphthyridin-4-yl]-[2,6]naphthyridin-3-ylamine] | < 1 | < 1 |
| O=c1c2cnccc2c(-c2cc(-c3ccccc3F)nc3ncccc23)cn1CCO [Compound 67, 4-[2-(2-Fluoro-phenyl)-[1,8]naphthyridin-4-yl]-2-(2-hydroxy-ethyl)-2H-[2,7]naphthyridin-1-one] | < 1 | 1 to 10 |
| O=c1c2cnccc2c(-c2cc(-c3cc(Cl)ccc3F)nc3ncccc23)cn1CCO [Compound 68, 4-[2-(5-Chloro-2-fluoro-phenyl)-[1,8]naphthyridin-4-yl]-2-(2-hydroxy-ethyl)-2H-[2,7]naphthyridin-1-one] | < 1 | < 1 |
| COc1ccc2cnccc2c1-c1cc(-c2ccccc2F)nc2ncccc12 [Compound 70, 2-(2-Fluoro-phenyl)-4-(6-methoxy-isoquinolin-5-yl)-[1,8]naphthyridine] | < 1 | < 1 |
| CN(C)CC(=O)Nc1nccc2c(-c3cc(-c4ccccc4F)nc4ncccc34)nccc12 [Compound 71, 2-Dimethylamino-N-{5-[2-(2-fluoro-phenyl)-[1,8]naphthyridin-4-yl]-[2,6]naphthyridin-1-yl}-acetamide] | 1 to 10 | 1 to 10 |
| O=c1c2cnccc2c(-c2cc(-c3cc(F)ccc3F)nc3ncccc23)cn1CCO [Compound 72, 4-[2-(2,5-Difluoro-phenyl)-[1,8]naphthyridin-4-yl]-2-(2-hydroxy-ethyl)-2H-[2,7]naphthyridin-1-one] | < 1 | < 1 |
| COCC(=O)Nc1nccc2c(-c3cc(-c4ccccc4F)nc4ncccc34)nccc12 [Compound 73, N-{5-[2-(2-Fluoro-phenyl)-[1,8]naphthyridin-4-yl]-[2,6]naphthyridin-1-yl}-2-methoxy-acetamide] | 1 to 10 | 1 to 10 |
| Cn1cc(-c2cc(-c3cc(Cl)ccc3F)nc3ncccc23)c2ccncc2c1=O [Compound 74, 4-[2-(5-Chloro-2-fluoro-phenyl)-[1,8]naphthyridin-4-yl]-2-methyl-2H-[2,7]naphthyridin-1-one] | < 1 | < 1 |
| O=c1c2cnccc2c(-c2cc(-c3cc(Cl)ccc3F)nc3ncccc23)cn1CCCO [Compound 75, 4-[2-(5-Chloro-2-fluoro-phenyl)-[1,8]naphthyridin-4-yl]-2-(3-hydroxy-propyl)-2H-[2,7]naphthyridin-1-one] | < 1 | < 1 |
| O=c1c2cnccc2c(-c2cc(-c3cc(Cl)ccc3F)nc3ncccc23)cn1CCN1CCOCC1 [Compound 76, 4-[2-(5-Chloro-2-fluoro-phenyl)-[1,8]naphthyridin-4-yl]-2-(2-morpholin-4-yl-ethyl)-2H-[2,7]naphthyridin-1-one] | 1 to 10 | 1 to 10 |
| Fc1ccc(Cl)cc1-c1cc(-c2cnc(OCCN3CCOCC3)c3cnccc23)c2cccnc2n1 [Compound 77, 2-(5-Chloro-2-fluoro-phenyl)-4-[1-(2-morpholin-4-yl-ethoxy)-[2,7]naphthyridin-4-yl]-[1,8]naphthyridine] | < 1 | < 1 |
| Fc1ccccc1-c1cc(-c2cnc(OCCN3CCOCC3)c3cnccc23)c2cccnc2n1 [Compound 78, 2-(2-Fluoro-phenyl)-4-[1-(2-morpholin-4-yl-ethoxy)-[2,7]naphthyridin-4-yl]-[1,8]naphthyridine] | < 1 | 1 to 10 |
| Nc1nccc2c(-c3cc(-c4ccccc4F)nc4ncccc34)ccc(OCCO)c12 [Compound 79, 2-{1-Amino-5-[2-(2-fluoro-phenyl)-[1,8]naphthyridin-4-yl]-isoquinolin-8-yloxy}-ethanol] | < 1 | < 1 |
| O=c1c2cnccc2c(-c2cc(-c3cc(Cl)ccc3F)nc3ncccc23)cn1CC(O)CO (stereo not shown) [Compound 81, 4-[2-(5-Chloro-2-fluoro-phenyl)-[1,8]naphthyridin-4-yl]-2-(2,3-dihydroxy-propyl)-2H-[2,7]naphthyridin-1-one] | < 1 | < 1 |
| CN(C)CCOc1ccc(-c2cc(-c3cc(Cl)ccc3F)nc3ncccc23)c2ccncc12 [Compound 82, (2-{5-[2-(5-Chloro-2-fluoro-phenyl)-[1,8]naphthyridin-4-yl]-isoquinolin-8-yloxy}-ethyl)-dimethyl-amine] | < 1 | < 1 |
| Fc1ccc(Cl)cc1-c1cc(-c2ccc(Cl)c3cnccc23)c2cccnc2n1 [Compound 83, 2-(5-Chloro-2-fluoro-phenyl)-4-(8-chloro-isoquinolin-5-yl)-[1,8]naphthyridine] | < 1 | < 1 |
| Cc1ccc(-c2cc(-c3nccc4c(N)nccc34)c3cccnc3n2)o1 [Compound 84, 5-[2-(5-Methyl-furan-2-yl)-[1,8]naphthyridin-4-yl]-[2,6]naphthyridin-1-ylamine] | < 1 | < 1 |
